Consider 18 substances from the OligoGym collection.

HELM strings list units from the 5' end as sugar, base in round brackets, then linkage (d deoxyribose, r ribose, m 2'-O-methyl, p phosphodiester). Strings are as the collection lists them; they lack the last nucleoside at the 3' end of the tested compound. [moe] = 2'-O-(2-methoxyethyl) (MOE); [sp] = phosphorothioate linkage; [m5C] = 5-methylcytosine

In the series the target is GFAP. The series can be described thus: mouse, dose not given. Conditions: ASO.
Turning to “RNA1{[moe](G)[sp].[moe](G)p.[moe]([m5C])p.[moe](A)p.[moe]([m5C])p.[moe](A)p.d(G)[sp].d(T)[sp].d(T)[sp].d([m5C])[sp].d([m5C])[sp].d([m5C])[sp].d(A)[sp].d(G)[sp].d(A)[sp].d(T)[sp].[moe](A)p.[moe]([m5C])[sp].[moe](T)}$$$$ (last 3' nucleoside missing)”, the 3 h FOB score amounted to 1 score 0-7.

“RNA1{[moe](G)[sp].[moe](G)p.[moe]([m5C])p.[moe](A)p.d(G)[sp].d(T)[sp].d(A)[sp].d(T)[sp].d(T)[sp].d(A)[sp].d([m5C])[sp].d([m5C])[sp].d(T)[sp].d([m5C])[sp].[moe](T)p.[moe](A)p.[moe]([m5C])p.[moe](T)[sp].[moe](A)}$$$$ (last 3' nucleoside missing)”: the 3 h FOB score is 3 score 0-7.

On to “RNA1{[moe](G)[sp].[moe](G)p.[moe]([m5C])p.[moe](A)p.d([m5C])[sp].d(A)[sp].d(G)[sp].d(T)[sp].d(T)[sp].d([m5C])[sp].d([m5C])[sp].d([m5C])[sp].d(A)[sp].d(G)[sp].[moe](A)p.[moe](T)p.[moe](A)p.[moe]([m5C])[sp].[moe](T)}$$$$ (last 3' nucleoside missing)”, for which the 3 h FOB score was found to be 1 score 0-7.

In turn, “RNA1{[moe](G)[sp].[moe](G)p.[moe]([m5C])p.[moe](G)p.[moe](A)[sp].d(G)[sp].d([m5C])[sp].d(G)[sp].d(G)[sp].d(A)[sp].d(G)[sp].d(G)[sp].d([m5C])[sp].d([m5C])[sp].d(T)[sp].[moe](G)p.[moe](G)p.[moe](G)[sp].[moe](T)}$$$$ (last 3' nucleoside missing)” returned a 3 h FOB score of 7 score 0-7.

With “RNA1{[moe](G)[sp].[moe](G)p.[moe]([m5C])p.[moe](T)p.[moe](T)[sp].d(T)[sp].d(T)[sp].d(G)[sp].d(A)[sp].d(G)[sp].d(A)[sp].d(T)[sp].d(A)[sp].d(T)[sp].d([m5C])[sp].[moe](T)p.[moe](T)p.[moe](G)[sp].[moe](T)}$$$$ (last 3' nucleoside missing)”, the 3 h FOB score was determined as 5 score 0-7.

In turn, “RNA1{[moe](G)[sp].[moe](G)p.[moe]([m5C])p.[moe](T)p.[moe](T)[sp].d([m5C])[sp].d(A)[sp].d(T)[sp].d([m5C])[sp].d(T)[sp].d(G)[sp].d([m5C])[sp].d(T)[sp].d(T)[sp].d([m5C])[sp].[moe]([m5C])p.[moe](T)p.[moe](G)[sp].[moe](G)}$$$$ (last 3' nucleoside missing)” returned a 3 h FOB score of 1 score 0-7.

For the substance “RNA1{[moe](G)[sp].[moe](G)p.[moe]([m5C])p.[moe](T)p.[moe]([m5C])[sp].d(T)[sp].d([m5C])[sp].d(T)[sp].d([m5C])[sp].d(A)[sp].d(T)[sp].d([m5C])[sp].d(T)[sp].d(G)[sp].d(T)[sp].[moe]([m5C])p.[moe](A)p.[moe](A)[sp].[moe](A)}$$$$ (last 3' nucleoside missing)”, the 3 h FOB score turned out to be 4 score 0-7.

Regarding “RNA1{[moe](G)[sp].[moe](G)p.[moe]([m5C])p.[moe]([m5C])p.[moe](T)[sp].d(A)[sp].d([m5C])[sp].d(T)[sp].d(T)[sp].d([m5C])[sp].d(T)[sp].d([m5C])[sp].d(T)[sp].d(A)[sp].d(G)[sp].[moe](G)p.[moe](T)p.[moe](G)[sp].[moe](G)}$$$$ (last 3' nucleoside missing)”, the 3 h FOB score was determined as 1 score 0-7.

Consider “RNA1{[moe](G)[sp].[moe](T)p.[moe](A)p.[moe](G)p.[moe](T)[sp].d(T)[sp].d(T)[sp].d([m5C])[sp].d([m5C])[sp].d(T)[sp].d(T)[sp].d(T)[sp].d(T)[sp].d(A)[sp].d([m5C])[sp].[moe]([m5C])p.[moe](A)p.[moe](A)[sp].[moe](G)}$$$$ (last 3' nucleoside missing)”, for which the 3 h FOB score worked out at 1 score 0-7.

In turn, “RNA1{[moe](G)[sp].[moe](T)p.[moe](A)p.[moe](T)p.[moe](T)[sp].d(A)[sp].d(G)[sp].d(G)[sp].d(A)[sp].d(T)[sp].d([m5C])[sp].d([m5C])[sp].d([m5C])[sp].[moe](A)p.[moe](T)p.[moe]([m5C])[sp].[moe](T)}$$$$ (last 3' nucleoside missing)” yielded a 3 h FOB score of 2 score 0-7.

Consider “RNA1{[moe](G)[sp].[moe](T)p.[moe](A)p.[moe]([m5C])p.[moe]([m5C])[sp].d([m5C])[sp].d(T)[sp].d(G)[sp].d(G)[sp].d(T)[sp].d(A)[sp].d(T)[sp].d(G)[sp].d(A)[sp].d(T)[sp].[moe](A)p.[moe](G)p.[moe](G)[sp].[moe]([m5C])}$$$$ (last 3' nucleoside missing)”, for which the 3 h FOB score was 6 score 0-7.

Take “RNA1{[moe](G)[sp].[moe](T)p.[moe](G)p.[moe](A)p.[moe](G)[sp].d(G)[sp].d([m5C])[sp].d(T)[sp].d(T)[sp].d(T)[sp].d(T)[sp].d(G)[sp].d(A)[sp].d(G)[sp].d(A)[sp].[moe](T)p.[moe](A)p.[moe](T)[sp].[moe]([m5C])}$$$$ (last 3' nucleoside missing)”: the 3 h FOB score was found to be 5 score 0-7.

“RNA1{[moe](G)[sp].[moe](T)p.[moe](G)p.[moe](A)p.[moe](G)[sp].d(T)[sp].d(T)[sp].d(T)[sp].d([m5C])[sp].d(T)[sp].d(T)[sp].d(G)[sp].d(T)[sp].d(T)[sp].d(A)[sp].[moe](G)p.[moe](T)p.[moe](T)[sp].[moe](G)}$$$$ (last 3' nucleoside missing)” registered a 3 h FOB score of 7 score 0-7.

Consider “RNA1{[moe](G)[sp].[moe](T)p.[moe](G)p.[moe](A)p.[moe](T)[sp].d(T)[sp].d(T)[sp].d(T)[sp].d([m5C])[sp].d([m5C])[sp].d([m5C])[sp].d([m5C])[sp].d(G)[sp].[moe](T)p.[moe]([m5C])p.[moe](T)[sp].[moe](T)}$$$$ (last 3' nucleoside missing)”, for which the 3 h FOB score was determined as 0 score 0-7.

Take “RNA1{[moe](G)[sp].[moe](T)p.[moe](G)p.[moe](A)p.[moe](T)[sp].d(T)[sp].d(T)[sp].d(T)[sp].d([m5C])[sp].d([m5C])[sp].d([m5C])[sp].d([m5C])[sp].d(G)[sp].d(T)[sp].d([m5C])[sp].[moe](T)p.[moe](T)p.[moe](T)[sp].[moe](G)}$$$$ (last 3' nucleoside missing)”: the 3 h FOB score worked out at 6 score 0-7.

“RNA1{[moe](G)[sp].[moe](T)p.[moe](G)p.[moe](A)p.[moe]([m5C])[sp].d(T)[sp].d(A)[sp].d(T)[sp].d([m5C])[sp].d(T)[sp].d(A)[sp].d(G)[sp].d(G)[sp].d(A)[sp].d(T)[sp].[moe](T)p.[moe](T)p.[moe](G)[sp].[moe](G)}$$$$ (last 3' nucleoside missing)” displayed a 3 h FOB score of 6 score 0-7.

In turn, “RNA1{[moe](G)[sp].[moe](T)p.[moe](G)p.[moe](A)p.d([m5C])[sp].d(T)[sp].d(A)[sp].d(T)[sp].d([m5C])[sp].d(T)[sp].d(A)[sp].d(G)[sp].d(G)[sp].d(A)[sp].[moe](T)p.[moe](T)p.[moe](T)p.[moe](G)[sp].[moe](G)}$$$$ (last 3' nucleoside missing)” yielded a 3 h FOB score of 3 score 0-7.

In turn, “RNA1{[moe](G)[sp].[moe](T)p.[moe](G)p.[moe](G)p.[moe](A)[sp].d(G)[sp].d(G)[sp].d(G)[sp].d([m5C])[sp].d(G)[sp].d(A)[sp].d(T)[sp].d(G)[sp].d(T)[sp].d(A)[sp].[moe](G)p.[moe](T)p.[moe](A)[sp].[moe](G)}$$$$ (last 3' nucleoside missing)” came in with a 3 h FOB score of 7 score 0-7.
